pIC50: −log10 of the molar value. Read-outs that look alike come from different tables or passages of the source.

Assay [1] concerns dengue virus serotype II. Kind of assay: BHK-DV2 replication determination (qPCR of viral genome copy number in culture supernatant). It counts as cell-based. Conditions: 96 h, BHK cells infected with DV2 (MOI=0.05), 4 days culture, viral RNA copy number in supernatant by qPCR. On the procedure:
(§1) The Inhibitive Activity Test of the Quinazoline Compounds of the Present Invention Against Dengue Virus Serotype II and Hepatitis C Virus of Flaviviridae:
(§2) The test results of the inhibitive activity of the quinazoline compounds of the present invention against dengue virus serotype II and Hepatitis C virus of Flaviviridae are listed in table 1.
BHK-DV2-Replication Determination:
BHK cells were inoculated on a 96-well plate. 24 hours later, DV2 viruses were added to infect for 2 h (MOI=0.05), and then viral liquid was washed away. After fresh culture medium was replaced, compounds with different concentrations were added respectively, including infection control without addition of compounds and normal MK control free from infection. After 4 days culture, the supernatant of culture fluid was sucked and centrifuged at 1000RCF for 5 min to remove the cell precipitate. Virus RNA was extracted from the supernatant by using a kit, and then reverse transcriped to be as cDNA, which was evaluated by qPCR method to determine the copy number of the virogene group in the supernatant.
(§3) The inhibitive effect of the compounds on the copy number of the viruses in the culture supernatant of the BHK infected by DV2 directly reflects the inhibitive effect of the compounds against the generation of progeny viruses. In the HCV detection, the inhibitive effect of the compounds against intracellular replication of the HCV viruses can be visually determined via fluoroscopy. Meanwhile, as the only cell model which can currently be infected in vitro, Huh7.5.1 cell model infected by HCV viruses can maximumly reproduce the infection and replication process of Hepatitis C virus in vivo.

Assay [2] has as its system Hepatitis C virus. The experiment in a line: Huh7.5.1-HCV determination (J399EM NS5A-EGFP fluorescence). In kind it is cell-based.
From the text: as §1, §2
Huh7.5.1-HCV Determination:
Huh7.5.1 cell, which is currently the only cell model which can be in vitro infected by HCV viruses, can be infected by HCV viruses in vitro, and generates infective progeny viruses. J399EM is a HCV full-length mutant strain transfected by EGFP, and can generate viruses which have the same infectivity as wild-type JFH-1. Meanwhile, NS5A-EGFP fusion protein fluorescence can be observed directly in the infected cells by inserting the EGFP coding sequence into NS5A region. In this experiment, Huh7.5.1 cells were inoculated on a 96-well plate and cultured under 5% CO2 at 37° C. for 24 h. Huh7.5.1 cells were infected by J399EM virus supernatant (moi≈0.1). Meanwhile, cell control wells free from infection were included. The infected cells were washed with PBS after 8 h infection. Samples with different concentrations were added into Huh7.5.1 cells infected by J399EM viruses. Each concentration was set double wells, and control well without sample was included. The tested samples were diluted to six gradient concentrations and added respectively, and the cells were cultured for another 72 h. After the cells were treated by the samples for 72 hours, the relative intensity of fluorescence (RFU) was recorded at an excitation wavelength of 488 nm and an emission wavelength of 516 nm on a fluorescent ELISA Reader to detect the inhibition effect of the samples against HCV. The inhibition rate against HCV virus was calculated according to equation.
as §3

The mark [3] stands for this setting: Hepatitis C virus, Huh-7.5.1, 72 h, read-out: Huh7.5.1-HCV (replication) IC50.

As for `Nc1ccc(Oc2cccc3nc(N)nc(N)c23)cc1` [Yhhu-1150, 5-(4-aminophenoxy)-2,4-diaminoquinazoline], the pIC50 in assay [1] is 6.31; in assay [2] (setting [3]), 5.14. Turning to `Nc1nc(N)c2c(OCCN3CCCC3)cccc2n1` [Yhhu-1041, 5-(2-(1-pyrrolidinyl)ethoxy)-2,4-diaminoquinazoline], the pIC50 in assay [1] was 5.15; in assay [2] (setting [3]) it was 4.91. As to `CCOc1cccc2nc(N)nc(N)c12` [Yhhu-1149, 5-ethoxy-2,4-diaminoquinazoline], the figures for the pIC50 in assay [1] and in assay [2] (setting [3]) were 6.80 and 5.40, respectively.

`Nc1nc(N)c2c(OCc3cccnc3)cccc2n1` [Yhhu-1151, 5-(3-pyridinemethoxy)-2,4-diaminoquinazoline]: the pIC50 was 6.37 in assay [1] and 5.11 in assay [2] (setting [3]). `CC(C)(C)c1ccc(Oc2cccc3nc(N)nc(N)c23)cc1` [Yhhu-1035, 5-(4-tert-butylphenoxy)-2,4-diaminoquinazoline]: the values for the pIC50 in assay [1] and in assay [2] (setting [3]) were 5.71 and 5.32, respectively. `COc1cccc2nc(N)nc(N)c12` [Yhhu-0967, 5-methoxy-2,4-diaminoquinazoline]: the pIC50 in assay [1] is 6.12; in assay [2] (setting [3]) it was 5.24. For `CCCCCCCCOc1cccc2nc(N)nc(N)c12` [Yhhu-1411, 5-n-octyloxy-2,4-diaminoquinazoline], in that order: 6.74 and 5.80. For the compound `NC(=O)c1ncn([C@@H]2O[C@H](CO)[C@@H](O)[C@H]2O)n1` [Ribavirin, reference compound], in assay [2] (Hepatitis C virus, read-out: half effective inhibitive concentration against HCV virus tested in vitro), the pIC50 is 4.70. For the compound `Nc1nc(N)c2c(OCc3ccccc3)cccc2n1` [Yhhu-1046, 5-benzyloxy-2,4-diaminoquinazoline], the values for the pIC50 in assay [1] and in assay [2] (setting [3]) were 6.47 and 5.63, respectively. For `CC(C)CCOc1cccc2nc(N)nc(N)c12` [Yhhu-1412, 5-isoamyloxy-2,4-diaminoquinazoline], in that order: 7.00 and 5.76. Turning to `Nc1nc(N)c2c(OC3CCCC3)cccc2n1` [Yhhu-1056, 5-cyclopentyloxy-2,4-diaminoquinazoline], the pIC50 is less than 4.60 in assay [1] and 6.01 in assay [2] (setting [3]). For `Nc1nc(N)c2c(Oc3ccccc3)cccc2n1` [Yhhu-0970, 5-phenoxy-2,4-diaminoquinazoline], in that order: 6.37 and 5.50.

Take `Nc1nc(N)c2c(Oc3ccc(Cl)cc3)cccc2n1` [Yhhu-0968, 5-(4-chlorophenoxy)-2,4-diamino quinazoline]: the pIC50 in assay [1] was less than 5.30. For the compound `CC(C)(C)COc1cccc2nc(N)nc(N)c12` [Yhhu-1413, 5-neooamyloxy-2,4-diaminoquinazoline], the figures for the pIC50 in assay [1] and in assay [2] (setting [3]) were 6.80 and 5.43, respectively. On to `Nc1nc(N)c2c(OC3CCCCC3)cccc2n1` [Yhhu-1147, 5-cyclohexyloxy-2,4-diaminoquinazoline], for which the pIC50 in assay [1] was 7.00; in assay [2] (setting [3]) it was 5.33.

As for `Nc1nc(N)c2c(OCC(F)(F)F)cccc2n1` [Yhhu-1148, 5-(2,2,2-trifluoroethoxy-2,4-diaminoquinazoline], the pIC50 was 7.40 in assay [1] and 5.51 in assay [2] (setting [3]). Take `COc1ccccc1Oc1cccc2nc(N)nc(N)c12` [Yhhu-0969, 5-(2-methoxyphenoxy)-2,4-diaminoquinazoline]: the pIC50 in assay [1] is 5.95. Take `Nc1nc(N)c2c(Oc3cccc(Cl)c3)cccc2n1` [Yhhu-1053, 5-(3-chlorophenoxy)-2,4-diamino quinazoline]: the figures for the pIC50 in assay [1] and in assay [2] (setting [3]) were 6.42 and 6.10, respectively. For `CC(C)(C)Oc1cccc2nc(N)nc(N)c12` [Yhhu-1036, 5-tert-butoxy-2,4-diaminoquinazoline], in that order: 8.05 and 5.91. On to `COc1c(C)c2c(c(O)c1C/C=C(\C)CCC(=O)O)C(=O)OC2` [mycoplienolic acid, reference compound], for which the pIC50 in assay [2] (common control compounds, HCV in vitro, read-out: half effective inhibitive concentration against HCV virus tested in vitro) is 5.90. `Nc1nc(N)c2c(OC34CC5CC(CC(C5)C3)C4)cccc2n1` [Yhhu-1146, 5 (1-adamantyloxy)-2,4-diaminoquinazoline]: the pIC50 in assay [1] was less than 4.60; in assay [2] (setting [3]), 5.29. For `CCCCOc1cccc2nc(N)nc(N)c12` [Yhhu-1145, 5-n-butoxy-2,4-diaminoquinazoline], in that order: 6.96 and 5.63. For `COc1ccc(Oc2cccc3nc(N)nc(N)c23)cc1` [Yhhu-1152, 5-(4-methoxyphenoxy)-2,4-diaminoquinazoline], in that order: 5.51 and 4.61.

The values above are taken from patent publication US9133138B2, “Use of a quinazoline compound in preparing a medicament against flaviviridae virus” (priority 2010, dated 2015).
